# Assay results reported in PubChem BioAssay (NCI).
#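 Five concentrations, 48 hours, 96-well plates. Abbreviation: GI50, concentration required for 50% inhibition of growth. TGI marks complete inhibition of growth.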
# What was measured:
# Test in all cases: inhibition of tumour cell growth, NCI panel, 48 h
# 786-0 renal = tested on: 786-0 renal
# MDA-MB-435 = tested on: MDA-MB-435
# BT-549 breast = tested on: BT-549 breast
# SK-MEL-2 melanoma = tested on: SK-MEL-2 melanoma
# SNB-19 CNS = tested on: SNB-19 CNS
# HCT-116 colon = tested on: HCT-116 colon
# OVCAR-5 ovarian = tested on: OVCAR-5 ovarian
# SK-MEL-5 melanoma = tested on: SK-MEL-5 melanoma
# A498 renal = tested on: A498 renal
# NCI-H23 lung = tested on: NCI-H23 lung
Structure (SMILES),TGI (786-0 renal),TGI (MDA-MB-435),GI50 (BT-549 breast),TGI (BT-549 breast),TGI (SK-MEL-2 melanoma),TGI (SNB-19 CNS),TGI (HCT-116 colon),TGI (OVCAR-5 ovarian),TGI (SK-MEL-5 melanoma),GI50 (A498 renal),TGI (A498 renal),TGI (NCI-H23 lung),GI50 (786-0 renal),GI50 (MDA-MB-435),GI50 (SK-MEL-2 melanoma),GI50 (SNB-19 CNS),GI50 (HCT-116 colon),GI50 (OVCAR-5 ovarian),GI50 (SK-MEL-5 melanoma),GI50 (NCI-H23 lung)
CC(C)C[C@H](NC(=O)[C@@H](O)[C@H](N)Cc1ccccc1)C(=O)O,> 100 µM,> 100 µM,> 100 µM,> 100 µM,> 100 µM,> 100 µM,> 100 µM,> 100 µM,> 100 µM,> 100 µM,> 100 µM,> 100 µM,–,–,–,–,–,–,–,–
CN1C(=O)C23CC4=CC=CC(O)C4N2C(=O)C1(CO)SS3 (stereo not given),0.222 µM,2.56 µM,–,0.742 µM,0.617 µM,0.55 µM,0.279 µM,0.149 µM,0.38 µM,–,0.402 µM,0.348 µM,–,–,–,–,–,–,–,–
CN1CCN(C(=S)SCN2C(=O)c3ccccc3S2(=O)=O)CC1,43 µM,99.4 µM,> 100 µM,> 100 µM,> 100 µM,> 100 µM,44.9 µM,> 100 µM,38.9 µM,93 µM,> 100 µM,> 100 µM,12 µM,28.2 µM,> 100 µM,> 100 µM,12.8 µM,30.2 µM,16.1 µM,35.1 µM
C=C(C)[C@@H]1CCC[C@]2(C(=O)O)CC[C@]3(C)[C@@H](CC[C@@H]4[C@@]5(C)C/C(=C/c6ccncc6)C(=O)C(C)(C)[C@@H]5CC[C@]43C)[C@@H]12,6.23 µM,6.88 µM,2.1 µM,6.21 µM,6.72 µM,17.1 µM,2.8 µM,11.9 µM,4.51 µM,1.62 µM,5.01 µM,12.9 µM,2.24 µM,2.6 µM,2.59 µM,3.69 µM,1.36 µM,2.52 µM,1.96 µM,3.33 µM
Nc1ccc2c(c1)CN1C(=O)c3ccccc3C1=N2,> 125 µM,> 125 µM,–,> 125 µM,> 125 µM,124 µM,> 125 µM,> 112 µM,90.9 µM,–,104 µM,> 125 µM,36.8 µM,–,–,60.6 µM,29.7 µM,–,–,–
O=c1c2cc(F)ccc2sc2c(NCCCN3CCCC3)nc3ccccc3c12,3.08 µM,3.25 µM,2.99 µM,12 µM,4.77 µM,3.53 µM,3.19 µM,3.74 µM,3.07 µM,1.74 µM,7.65 µM,3.69 µM,1.61 µM,1.8 µM,2.19 µM,1.7 µM,1.63 µM,1.85 µM,1.69 µM,1.89 µM
CC1(C)CC2(C)OC2C2(C1)N=NC(=Nc1ccccc1)O2 (stereo not given),5.63 µM,24.2 µM,2.22 µM,4.99 µM,24.3 µM,28 µM,6.45 µM,26.2 µM,18.5 µM,16.7 µM,34.8 µM,29.9 µM,2.33 µM,3.01 µM,10.5 µM,14.1 µM,1.29 µM,11.2 µM,5.48 µM,5.93 µM
